For three compounds, cell viability results are on record in the supplement of paper PMC11451515.

The assay deals with P12-Ichikawa. Kind of assay: cell viability relative to DMSO control; higher = less cytotoxic. To be noted: 48 h. In a few lines: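 Viability, reported as a per-plate percentage of DMSO wells with cell-free wells as background, came from CellTiter-Glo One luminescence. Reading took place after 48 h at 37°C. Before that, NOMO1 or SEM (500 cells/well) or P12-Ichikawa (1000 cells/well) leukemia cells, adapted for at least four passages in each medium, were seeded in 1536-well plates (5 μl) and pin-dosed with library compounds in DMSO, 47 μM to 0.79 nM over 11 threefold points.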

Where [1] appears, read: HPLM + 10% dialyzed FBS, 0.000781 µM.
[2] abbreviates: HPLM + 10% dialyzed FBS, 0.00234 µM.
[3] abbreviates: HPLM + 10% dialyzed FBS, 0.00702 µM.
[4] abbreviates: HPLM + 10% dialyzed FBS, 0.0211 µM.
Setting [5] is: HPLM + 10% dialyzed FBS, 0.0632 µM.
[6] abbreviates: HPLM + 10% dialyzed FBS, 0.19 µM.
[7] abbreviates: HPLM + 10% dialyzed FBS, 0.569 µM.
Where [8] appears, read: HPLM + 10% dialyzed FBS, 1.71 µM.
[9] abbreviates: HPLM + 10% dialyzed FBS, 5.12 µM.
[10] abbreviates: HPLM + 10% dialyzed FBS, 15.4 µM.
Setting [11] is: HPLM + 10% dialyzed FBS, 46.1 µM.

Take `COc1cc2nc(N3CCN(C(=O)C4CCCO4)CC3)nc(N)c2cc1OC` (centres undefined): the cell viability (usually a read-out of living cells in per cent, often relative to untreated cells) reads like this: under setting [1], 112%; under setting [2], 123%; under setting [3], 123%; under setting [4], 127%; under setting [5], 130%; under setting [6], 130%. The cell viability worked out at 131% under setting [7]; 124% under setting [8]; 127% under setting [9]; 139% under setting [10]; 136% under setting [11].

As for `CCN(CC)CCCCNc1ncc2c(n1)N(C)C(=O)N(c1c(Cl)c(OC)cc(OC)c1Cl)C2`, the cell viability under setting [1] amounted to 118%; the cell viability under setting [2] stood at 121%; the cell viability under setting [3] came out at 120%; the cell viability under setting [4] is 118%; the cell viability under setting [5] turned out to be 117%; the cell viability under setting [6] is 115%. The cell viability reads like this: under setting [7], 113%; under setting [8], 121%; under setting [9], 114%; under setting [10], 105%; under setting [11], 11.8%; (RPMI 5 mM glucose + 10% dialyzed FBS, 0.000781 µM) 120%. Further, the cell viability (RPMI 5 mM glucose + 10% dialyzed FBS, 0.00234 µM) was 110%; the cell viability (RPMI 5 mM glucose + 10% dialyzed FBS, 0.00702 µM) came to 122%; the cell viability (RPMI 5 mM glucose + 10% dialyzed FBS, 0.0211 µM) stood at 119%; the cell viability (RPMI 5 mM glucose + 10% dialyzed FBS, 0.0632 µM) was 120%; the cell viability (RPMI 5 mM glucose + 10% dialyzed FBS, 0.19 µM) was found to be 117%; the cell viability (RPMI 5 mM glucose + 10% dialyzed FBS, 0.569 µM) turned out to be 106%. In addition, the cell viability turned out to be 103% (RPMI 5 mM glucose + 10% dialyzed FBS, 1.71 µM); 121% (RPMI 5 mM glucose + 10% dialyzed FBS, 5.12 µM); 90.9% (RPMI 5 mM glucose + 10% dialyzed FBS, 15.4 µM); 22.8% (RPMI 5 mM glucose + 10% dialyzed FBS, 46.1 µM).

Take `C[S+](=O)([O-])c1ccc(C(=O)Nc2ccc(Cl)c(-c3ccccn3)c2)c(Cl)c1`: the cell viability by setting is: under setting [1], 113%; under setting [2], 113%; under setting [3], 123%; under setting [4], 132%; under setting [5], 131%; under setting [6], 135%. Besides, the cell viability is, setting by setting: under setting [7], 136%; under setting [8], 125%; under setting [9], 131%; under setting [10], 126%; under setting [11], 127%.
